Legend:
[1] = molecular target: T1, C-terminal catalytic domain of human DNMT3A (hDNMT3A) (Homo sapiens, UniProt Q9Y6K1); assay: DNMT3A assay (restriction-based fluorescence assay); assay type: biochemical; settings: for inhibition at 3.2 µM / inhibition at 10 µM / inhibition at 32 µM / inhibition at 100 µM: read-out: % inhibition ± SD hDNMT3A; for inhibition at 100 µM: 100 µM compound
T1 construct: catalytic domain of human DNMT3A (residues 623–908), produced as described; made in house
From the text: DNMT3A enzyme inhibition was adapted from the restriction-based fluorescence assay protocol described in Ceccaldi et al.. Briefly, a 5'-labelled biotin oligonucleotide is hybridized to its complementary strand labelled with 6-carboxyfluorescein at the 3′-end into a 384 well microplate (black Optiplates; Perkin Elmer) pre-coated with avidin. The duplex contains a unique CpG site overlapping with a restriction site of a methylation sensitive restriction enzyme. The C-terminal catalytic domain of human DNMT3A (residues 623–908), produced as described, was added in each well (200 ng/well) and mixed with the chemical compounds at desired concentrations and freshly prepared AdoMet (20 µM final concentration) to start the reaction in a total volume of 50 µL. After 1 hour incubation at 37°C each well were washed three times with PBS, 0.05% Tween-20, 500 mM NaCl and three more times with PBST. Specific fluorescent signals were detected with the methylation-sensitive restriction enzyme HpyCH4IV (NEB) as described and measured on a Perkin Elmer Envision detector. The percentage of inhibition is reported. The formula used to calculate the percentage of inhibition is [(X-Y)/X]×100, where X is the signal determined in the absence of the inhibitor and Y is the signal obtained in the presence of the inhibitor. […] The non-linear regression fittings with sigmoidal dose-response (variable slope) were performed with GraphPad Prism 4.03 (GraphPad Software).

human DNMT1 (hDNMT1) = molecular target: T2, human DNMT1 (hDNMT1) (Homo sapiens, UniProt P26358); assay: DNMT1 assay (radioactive Flashplate methylation assay); assay type: biochemical; settings: 100 µM compound; for inhibition at 100 µM: read-out: % inhibition ± SD hDNMT1
T2 construct: His; made in house
Method: His-DNMT1 (182 kDa, human) was cloned, expressed and purified as described by Lee et al.. The DNMT1 assay was performed according to Gros et al.. Briefly, the reaction was started by addition of 90 nM of DNMT1 on a mix containing the tested compound (up to 1% DMSO), 1 µM of a AdoMet/[methyl-^3H]-AdoMet mix in a ratio of 3-to-1 (isotopic dilution 1*:3) and 0.3 µM of biotinylated DNA duplex in 10 µL final volume. The reaction was incubated at 37°C for 2 h in reaction buffer (20 mM HEPES pH 7.2, 1 mM EDTA, 50 mM KCl, 25 µg/mL BSA). 8 µL are then transferred into a streptavidin-coated Flashplate PLUS (PerkinElmer) containing 190 µL of 20 µM AdoHcy (Sigma-Aldrich) in 50 mM Tris-HCl pH 7.4. The Flashplate was agitated at room temperature for 1 h, washed three times with 200 µL of 0.05% Tween-20 in 50 mM Tris-HCl pH 7.4 and read in 200 µL of 50 mM Tris-HCl pH 7.4 on TopCount NXT (PerkinElmer). Percentages of inhibition were calculated with the same formula as in DNMT3A assay.

[2] = tested on: CMV-luc construct in KG-1 cells; assay: CMV-luc assay (luciferase re-expression from methylated CMV promoter); assay type: cell-based; settings: 24 h
U-937 cells = tested on: U-937 cells; design: method as in PMID 24387159; settings: 48 h; read-out: IC50 (mean ± SD) cell viability U-937; cited from earlier work
RAJI cells = tested on: RAJI cells; design: method as in PMID 24387159; settings: 48 h; read-out: IC50 (mean ± SD) cell viability RAJI; cited from earlier work
[3] = molecular target: T3, human G9a-like protein (GLP) (Homo sapiens, UniProt Q9H9B1); assay: GLP assay (histone methylation inhibition); assay type: biochemical; settings: 8 μM inhibitor; read-out: Percent of GLP inhibition
T3 construct: catalytic SET domain (residues 734-1235; pXC758) were purified as described; made in house
T3 sequence (Q9H9B1 765-1266): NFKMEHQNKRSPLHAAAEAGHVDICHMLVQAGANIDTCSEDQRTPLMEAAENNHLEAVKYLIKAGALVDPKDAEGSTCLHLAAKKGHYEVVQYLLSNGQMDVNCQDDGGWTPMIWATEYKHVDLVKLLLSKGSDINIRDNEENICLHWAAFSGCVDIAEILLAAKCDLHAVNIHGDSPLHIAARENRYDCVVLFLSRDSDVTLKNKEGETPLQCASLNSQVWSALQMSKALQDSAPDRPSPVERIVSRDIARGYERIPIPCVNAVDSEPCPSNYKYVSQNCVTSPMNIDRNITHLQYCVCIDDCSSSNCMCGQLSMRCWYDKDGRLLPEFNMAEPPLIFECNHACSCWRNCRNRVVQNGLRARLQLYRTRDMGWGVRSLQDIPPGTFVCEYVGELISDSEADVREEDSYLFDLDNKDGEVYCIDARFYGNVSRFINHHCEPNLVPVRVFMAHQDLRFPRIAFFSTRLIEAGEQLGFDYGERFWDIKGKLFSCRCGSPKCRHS
Method: GLP Assay. Recombinant human G9a-like protein (GLP) C-terminal fragment containing both the ankyrin repeats and catalytic SET domain (residues 734-1235; pXC758) were purified as described. For histone methylation inhibition, the assay was performed in 20 μL reaction containing 4.6 mM [methyl-^3H]-AdoMet, 50 μg/mL histone from calf thymus (SIGMA), 10 μg/mL (0.17 μM) GLP, 100 mM KCl, 5 mM (DTT) and 50 mM Tris-HCl pH 8.5. GLP was pre-incubated with AdoMet and 8 µM inhibitors for 5 min at 30 °C before the addition of the histone substrate. After incubation (5 min), the reaction was terminated by the addition of 20% trichloroacetic acid (TCA, Fisher Scientific). The reaction mixture was spotted on GF/A paper circles (Whatman), washed three times with 3 mL of 10% TCA and once with 3 mL of ethanol. The dried circles were subjected to liquid-scintillation counting with Cytoscint scintillant.

Human G9a = molecular target: T4, Human G9a (Homo sapiens, UniProt Q96KQ7); assay: G9a assay (3H-AdoMet filter-binding); assay type: biochemical; settings: 10-dose IC50 mode, 2-fold serial dilution starting at 400 µM
T4 sequence (Q96KQ7 786-1210 limits assumed): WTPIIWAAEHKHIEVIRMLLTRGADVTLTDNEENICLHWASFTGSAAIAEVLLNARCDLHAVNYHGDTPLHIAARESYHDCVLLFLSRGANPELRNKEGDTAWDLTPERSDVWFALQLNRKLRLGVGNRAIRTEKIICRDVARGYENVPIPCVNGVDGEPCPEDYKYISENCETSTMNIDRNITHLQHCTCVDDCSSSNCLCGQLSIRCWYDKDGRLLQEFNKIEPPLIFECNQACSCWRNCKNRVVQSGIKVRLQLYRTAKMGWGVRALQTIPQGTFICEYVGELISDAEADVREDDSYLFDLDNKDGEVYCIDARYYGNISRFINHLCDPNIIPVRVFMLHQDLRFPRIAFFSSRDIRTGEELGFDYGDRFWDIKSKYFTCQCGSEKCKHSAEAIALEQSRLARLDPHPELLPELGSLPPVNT
Method: The reaction buffer was 50 mM Tris-HCl, pH 8.5, 50 mM NaCl, 5 mM MgCl2, 1 mM dithiothreitol (DTT), 1 mM PMSF, and 1% DMSO. Standard substrate concentrations were 5 µM biotinylated H3 (1–21) peptide (AnaSpec) substrate and 0.1 mM AdoMet. For control compound IC50 determinations, the test compounds were diluted in DMSO and then added to the enzyme/substrate mixture in nanoliter amounts by using an acoustic technology (Echo 500; Lab-cyte). The reaction was initiated by the addition of ^3H-AdoMet, and incubated at 30°C for 1 h. The reaction was detected by a filter-binding method. Data analysis was performed using Graph Pad Prism software for curve fits, and GraFit (Erithacus) for global fit of kinetic studies.

T2 sequence (P26358 whole entry): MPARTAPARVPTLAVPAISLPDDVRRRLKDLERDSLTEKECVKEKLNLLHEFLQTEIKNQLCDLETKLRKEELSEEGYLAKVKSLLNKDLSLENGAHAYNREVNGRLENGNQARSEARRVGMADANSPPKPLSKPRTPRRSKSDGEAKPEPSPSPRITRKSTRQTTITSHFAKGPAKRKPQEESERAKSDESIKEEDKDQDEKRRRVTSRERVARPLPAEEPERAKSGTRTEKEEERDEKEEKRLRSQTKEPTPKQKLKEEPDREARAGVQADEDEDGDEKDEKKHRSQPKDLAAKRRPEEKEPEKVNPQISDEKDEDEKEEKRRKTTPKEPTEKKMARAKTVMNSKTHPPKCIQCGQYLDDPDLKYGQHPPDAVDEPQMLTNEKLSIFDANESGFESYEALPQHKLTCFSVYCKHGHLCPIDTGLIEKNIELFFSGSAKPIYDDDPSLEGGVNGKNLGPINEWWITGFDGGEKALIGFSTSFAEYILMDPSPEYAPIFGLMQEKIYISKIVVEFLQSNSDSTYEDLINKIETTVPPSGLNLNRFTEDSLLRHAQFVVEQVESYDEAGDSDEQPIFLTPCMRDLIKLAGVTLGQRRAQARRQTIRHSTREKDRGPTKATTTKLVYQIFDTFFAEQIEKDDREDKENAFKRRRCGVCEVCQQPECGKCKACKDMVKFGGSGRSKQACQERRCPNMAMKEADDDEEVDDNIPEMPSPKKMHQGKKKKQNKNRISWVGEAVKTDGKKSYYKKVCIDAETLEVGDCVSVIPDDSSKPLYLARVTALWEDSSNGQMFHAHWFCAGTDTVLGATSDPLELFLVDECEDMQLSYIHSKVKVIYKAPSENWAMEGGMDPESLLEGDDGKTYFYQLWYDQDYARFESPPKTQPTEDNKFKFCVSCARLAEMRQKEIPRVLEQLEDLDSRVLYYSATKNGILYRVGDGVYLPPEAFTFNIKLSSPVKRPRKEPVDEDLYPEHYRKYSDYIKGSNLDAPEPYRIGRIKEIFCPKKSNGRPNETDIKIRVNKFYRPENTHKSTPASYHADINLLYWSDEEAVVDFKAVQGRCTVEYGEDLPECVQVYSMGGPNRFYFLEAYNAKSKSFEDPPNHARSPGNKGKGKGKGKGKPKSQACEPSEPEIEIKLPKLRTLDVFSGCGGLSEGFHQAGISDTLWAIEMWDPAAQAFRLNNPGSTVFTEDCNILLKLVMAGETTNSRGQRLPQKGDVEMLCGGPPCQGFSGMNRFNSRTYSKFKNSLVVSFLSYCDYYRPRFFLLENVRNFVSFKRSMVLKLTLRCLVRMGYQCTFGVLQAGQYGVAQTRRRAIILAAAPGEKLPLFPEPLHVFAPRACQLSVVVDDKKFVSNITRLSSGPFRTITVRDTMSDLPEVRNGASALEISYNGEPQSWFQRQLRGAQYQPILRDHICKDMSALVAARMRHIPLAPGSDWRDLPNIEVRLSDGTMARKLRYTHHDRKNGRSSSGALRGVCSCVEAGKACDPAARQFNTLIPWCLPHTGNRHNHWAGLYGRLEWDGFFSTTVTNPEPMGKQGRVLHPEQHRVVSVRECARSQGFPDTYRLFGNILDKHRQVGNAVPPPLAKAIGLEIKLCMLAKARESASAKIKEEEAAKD
T1 sequence (Q9Y6K1 627-912): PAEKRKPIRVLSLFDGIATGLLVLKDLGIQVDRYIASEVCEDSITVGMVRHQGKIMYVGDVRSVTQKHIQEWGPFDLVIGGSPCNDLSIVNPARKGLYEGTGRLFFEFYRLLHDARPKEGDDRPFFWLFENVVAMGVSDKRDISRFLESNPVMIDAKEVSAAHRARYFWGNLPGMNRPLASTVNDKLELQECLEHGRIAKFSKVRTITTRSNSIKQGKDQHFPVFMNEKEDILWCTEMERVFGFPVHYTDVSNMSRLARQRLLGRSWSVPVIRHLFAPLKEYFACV

| Structure (SMILES) | inhibition at 10 µM ([1]; 10 µM compound) [%] | inhibition at 32 µM ([1]; 32 µM compound) [%] | inhibition at 100 µM [1] [%] | inhibition at 100 µM (human DNMT1 (hDNMT1)) [%] | melting point [°C] | other results |
| --- | --- | --- | --- | --- | --- | --- |
| c1ccc(CN2CCC(Nc3nc(N4CCCCC4)nc4ccccc34)CC2)cc1 [Compound 6] | 14 ± 6 | 33 ± 6 | 57 ± 8 | 0 |  | inhibition at 3.2 µM ([1]; 3.2 µM compound): 11 ± 5% |
| OCCNc1nc(NC2CCN(Cc3ccccc3)CC2)c2ccccc2n1 [Compound 16] | 8 ± 3 |  | 37 ± 4 | 0 | 116 to 118 |  |
| Cc1cc(Nc2ccc(NC(=O)c3ccc(Nc4ccnc5ccccc45)cc3)cc2)nc(N)n1 [SGI-1027, reference compound] |  |  |  |  |  | % inhibition ± SD hDNMT3A ([1]; 3.2 µM compound): 80±4%; % inhibition ± SD hDNMT3A ([1]; 10 µM compound): 72±6%; % inhibition ± SD hDNMT3A ([1]; 32 µM compound): 75±7%; fold-induction of the luciferase signal (CMV-luc) ([2]; 5 µM): 17 fold; fold-induction of the luciferase signal (CMV-luc) ([2]; 10 µM): 10 fold; fold-induction of the luciferase signal (CMV-luc) ([2]; 25 µM): no induction; % inhibition ± SD hDNMT1 (human DNMT1 (hDNMT1)): 100±0.1%; IC50 (U-937 cells): 1.7 ± 1.1 µM; IC50 (RAJI cells): 9.1 ± 0.8 µM |
| COc1cc2nc(N3CCCN(C)CC3)nc(NC3CCN(Cc4ccccc4)CC3)c2cc1OC [Compound 1, BIX-01294, reference compound] |  |  | 12 ± 3 | 30 |  | inhibition at 8 µM [3]: 91.7%; % inhibition ± SD hDNMT1 (human DNMT1 (hDNMT1); 100 µM): 35±8% |
| c1ccc(CN2CCC(Nc3nc(N4CCCCCC4)nc4ccccc34)CC2)cc1 [Compound 7] | 16 ± 2 | 32 ± 3 | 57 ± 3 | 0 | 119 to 122 | inhibition at 3.2 µM ([1]; 3.2 µM compound): 7 ± 2% |
| CN(C)CCNc1nc(NC2CCN(Cc3ccccc3)CC2)c2ccccc2n1 [Compound 17] |  |  | 10 | 0 | 120 to 122 |  |
| c1ccc(CN2CCC(Nc3nc(N4CCOCC4)nc4ccccc34)CC2)cc1 [Compound 12, N-(1-benzylpiperidin-4-yl)-2-morpholinoquinazolin-4-amine] |  |  | 7 | 0 |  |  |
| c1ccc(CN2CCC(Nc3nc(N4CCSCC4)nc4ccccc34)CC2)cc1 [Compound 11] | 8 ± 2 |  | 42 ± 3 | 0 | 155 to 157 |  |
| CN1C(=O)[C@@]23C[C@]4([C@]56C[C@@]78SS[C@@](CO)(C(=O)N7[C@H]5Nc5ccccc56)N(C)C8=O)c5ccccc5N[C@@H]4N2C(=O)[C@]1(CO)SS3 [chaetocin, reference compound] |  |  |  |  |  | IC50 (Human G9a): 8 µM |
| CC1CCN(c2nc(NC3CCN(Cc4ccccc4)CC3)c3ccccc3n2)CC1 [Compound 8] | 14 ± 2 | 35 ± 5 | 53 ± 3 | 0 | 106 to 108 | inhibition at 3.2 µM ([1]; 3.2 µM compound): 7 ± 1% |
| CC1CCCCN1c1nc(NC2CCN(Cc3ccccc3)CC2)c2ccccc2n1 (centres unmarked) [Compound 9] | 5 ± 2 | 14 ± 7 | 47 ± 5 | 0 | 128 to 129 | inhibition at 3.2 µM ([1]; 3.2 µM compound): 1 ± 1% |
| O=C(c1ccccc1)N1CCN(c2nc(NC3CCN(Cc4ccccc4)CC3)c3ccccc3n2)CC1 [Compound 15] |  |  | 23 ± 2 | 0 | 213 to 215 |  |
| CN1CCN(c2nc(NC3CCN(Cc4ccccc4)CC3)c3ccccc3n2)CC1 [Compound 5] | 0 | 14 ± 3 | 30 ± 8 | 0 |  |  |
| CN(C)CCCNc1nc(NC2CCN(Cc3ccccc3)CC2)c2ccccc2n1 [Compound 18] |  |  | 8 ± 1 | 0 |  |  |

— PMC4014597 (PLoS ONE, 2014)
